In patent US10105305B2, “Compositions and methods for promoting skin regeneration and hair growth” (THE JOHNS HOPKINS UNIVERSITY, priority 2014, dated 2018):
“Also recorded” adds a separate entry of the source.

Assays:
murine skin wounds = assay: Wound induced hair neogenesis (WIHN), regenerated hair follicles counted by CSLM; assay type: in vivo, mouse
Experimental: Wound Induced Hair Neogenesis (WIHN). All animal protocols are approved by the Johns Hopkins University Animal Care and Use Committee. C57BL/6J, B6; 129SF2/J and TLR3 null mice (B6; 129S1-Tlr3tm1Flv/J) were obtained from The Jackson Laboratory. Mixed strain (C57BL/6J×FVB/N×SJL/J) animals were provided by Dr. Jean Richa (University of Pennsylvania).
A 1 cm2 excisional full-thickness wounds to the level of skeletal muscle on the backs of 21-day old male and female mice was performed as previously described (Ito et al., 2007; Nelson et al., 2013). Numbers of regenerated hair follicles were quantified in the re-epithelialized skin by non-invasive confocal scanning laser microscopy (CSLM) as published (Fan et al., 2011). For all experiments, […] of “intervention” was injected into healing wound (under scab) or applied topically into open wound as shown in Table 1 below.
Treatments during WIHN assay. Recombinant mouse IL-6 protein (R&D Systems, Minneapolis, Minn.) and poly(I:C) (High Molecular Weight; InVivogen, San Diego, Calif.) was diluted in sterile PBS immediately prior to injection. Cucurbitacin I (Tocris Biosciences/R&D Systems, Minneapolis Minn.) was dissolved in 10% EtOH/PBS to a final concentration of 1 mg/mL prior to injection. RNase III enzyme (Life Technologies, Grand Island N.Y.) was diluted in supplied reaction buffer

[1] = tested on: neo-natal human epidermal keratinocytes (NHEK); assay: qRT-PCR gene expression in cultured keratinocytes (NHEK); assay type: cell-based
Experimental: Cell Culture. Neo-natal human epidermal keratinocytes (Lonza, Walkersville, Md.) or lab-isolated foreskin keratinocytes were cultured in keratinocyte medium with added supplements (KGMGOLD). Treatment with recombinant IL-6 protein (50 ng/mL), cucurbitacin I (10-100 nM), poly (I:C) (20 μg/mL) and TLR3 pharmacological inhibitor (80 μM; EMD Millipore, Billerica, Mass.) was applied in basal medium containing transferrin, hydrocortisone and antibiotics for up to 24 hours. After 24 hours, treatment medium was replaced with KGM-GOLD and isolation of RNA as indicated.
Nucleofection. Nucleofection with siGENOME SMARTpoo1 Human Tap63, TLR3, REL-A and siCONTROL siRNA duplex oligonucleotides (Dharmacon-ThermoFischer Scientific) was performed in NHEK using the Amaxa 4D-Nucleofector according to manufacturer's instruction. Plated cells were treated with recombinant human IL-6 (50 ng/mL) protein or poly(I:C) (20 μg/mL) for 24 hours. Afterwards, treatment medium was removed and replaced with KGMGOLD complete medium for the duration of the experiment. Levels of appropriate gene expression were assessed by qRT-PCR using inventoried TaqMan reagents in three independent experiments.
Quantitative Real-Time PCR (qRT-PCR). Mouse skin was harvested prior to wounding and throughout wounding as described (Nelson et al., 2013). RNA was isolated from NHEK with RNeasy Mini Kit (Qiagen, Valencia, Calif.) with DNase I digestion. qRT-PCR was performed for genes of interest and 18S or ribosomal protein, large PO (RPLP0) (housekeeping genes) using inventoried TaqMan reagents. Differences in gene expression were assessed by comparative ΔΔCT values with fold change calculations.

P-STAT3, TAp63, ΔNp63 = assay: Western blot of wound tissue in wt mice (P-STAT3, TAp63, ΔNp63); assay type: in vivo, mouse
Experimental: FIG. 2: IL-6 and pSTAT3 mediate TLR3 effects on WIHN. A) Mean fold change in IL-6 mRNA in healed scars at WD20-24 in HR vs. LR strains of mice as determined by qRT-PCR and normalized to housekeeping gene β-actin. B) Mean fold change in IL-6 mRNA after poly (I:C) addition (20 μg/mL) to NHEK for 6 hours or in strain matched wt and TLR3 KO mice 6 hours after wounding as determined by qRT-PCR and normalized to housekeeping gene RPLP0 (NHEK) or β-actin (mouse). C) Time course of IL-6 mRNA and protein expression throughout early stage wound healing in wt mice, as determined by qRT-PCR and ELISA, respectively. D) IL-6 (middle panels) and P-STAT3 (right panels; arrows) immunohistochemistry of healing scars at WD5 and WD8 in wt mice. Scale bar=50 μm. E) Cross-section histology of healed scar at WD22 after a single injection of IL-6 (25 ng) or PBS control at WD7. Regenerated hair follicles are marked with arrows. Scale bar=100 μm. F) Regenerated hair shafts (white, arrows) at ˜WD58-62 as visualized by dissecting microscope. G) WIHN in wt mice after single dose of rmIL-6 (25 ng) compared to PBS control as measured by CSLM. H) WIHN levels in wt mice after cucurbitacin I (2 mg/kg) or control as measured by CSLM. I) P-STAT 3 levels in the presence of cucurbitacin I (+) compared to control (−) in wt mice as measured by western blot and normalized to STAT3. PC=P-STAT3 positive control cell lysate. *p<0.05 by Student's T-test or Single Factor ANOVA.
FIG. 4: dsRNA and IL-6 induce keratinocyte stem cell genes. A) Mean fold change in TAp63 mRNA after IL-6 protein (50 ng/mL)+/−cucurbitacin I in NHEK as determined by qRT-PCR and normalized to housekeeping gene, RPLP0. B) TAp63 protein levels after IL-6 (25 ng) compared to PBS control in wt mice measured by western blot; normalized to β-actin. C) TAp63 and ΔNp63 protein levels after cucurbitacin I (2 mg/kg) compared to PBS control in wt mice measured by western blot; normalized to β-actin. D) Mean fold change in KRT1 mRNA with TAp63-specific or scrambled control siRNA in the presence of IL-6 (50 ng/mL) in NHEK as determined by qRT-PCR and normalized to housekeeping gene, RPLP0. E) Mean fold change in CBX4 mRNA after poly (I:C) (20 μg/mL) addition to NHEK for 24 hours as determined by qRT-PCR and normalized as in 4D. F) Mean fold change in CBX4 mRNA after IL-6 (50 ng/mL)+/−cucurbitacin I in NHEK for 24 hours as determined by qRT-PCR and normalized as in 4D. G) Mean fold change in KRT15 mRNA 72 hours after 24 hours of poly (I:C) (20 μg/mL) treatment to NHEK as determined by qRT-PCR and normalized as in 4D. H) Flow cytometry analysis of KRT15 protein expression 72 hours after 24 hours of poly (I:C) (20 μg/mL) or control to NHEK. *p<0.05 by Student's T-test or Single Factor ANOVA.

NHEK [2] = assay: Immunocytochemistry: keratinocyte morphology and beta-catenin nuclear localization; assay type: cell-based, human; conditions: 72 hours after 24 hours of poly (I:C) 20 μg/mL
Experimental: […] Fixed cells were incubated with primary antibodies overnight, appropriate Alexa Fluor secondary antibodies and counterstained using VectaShield DAPI mounting medium (Vector Labs, Burlingame, Calif.). Slides were imaged at 60× magnification using the Nikon C1si True Spectral Imaging Confocal Laser Scanning Microscope system (Cell Imaging Core Facility, Sidney Kimmel Comprehensive Cancer Center, Johns Hopkins, Baltimore, Md.). Cell morphology and beta-catenin nuclear localization were quantified using the CellProfiler image analysis software (www.cellprofiler.org) (Carpenter et al., 2006) from confocal images of nuclei.

NHEK [3] = assay: Flow cytometry of KRT15 and vimentin in keratinocytes; assay type: cell-based, human
Text: Flow Cytometry. Keratinocytes and fibroblasts were fixed, permeabilized (BD Cytofix/Cytoperm kit), and stained with antibodies against human vimentin (BD Pharmingen clone RV202) and KRT15 (Abam clone LHK15) labeled with a chromophore preconjugated to Fab (Zenon mouse IgG labeling kit). Data was collected on a dual-laser flow cytometer (BD FACSCalibur) followed by FlowJo 10 (TreeStar) software analysis.

[4] = tested on: β-catenin and GLI2 promoters; assay: ChIP-qPCR of STAT3 occupancy at promoters in keratinocytes; assay type: cell-based, human; conditions: poly (I:C) treated keratinocytes, N=5, p<0.05
Experimental: Chromatin Immunoprecipitation. Poly(I:C) treated and control keratinocytes were crosslinked in 1% formaldehyde for 10 minutes, followed by addition of glycine for 5 minutes to quench unreacted formaldehyde. Cells were processed with EZ-ChIP Kit (Millipore) according to the manufacturer's instructions. Crosslinked protein-DNA complexes were captured with rabbit anti-Stat3 or normal rabbit IgG (sc-482X; sc-2027X, SCBT) antibodies. Real-time quantitative PCR was performed to determine the relative abundance of the promoter DNA sequence, associated with Stat3. Primers are detailed in Expanded Experimental Methods. Primers and graphics were designed based on ENCODE data (UCSC Genome Browser).
ChIP. The amplicon for Gli2 promoter site 4 encompasses TTCCAGGAA (SEQ ID NO:2) on chr2: 121621123-121621782 in the Encode database. It was amplified with the primer sequences: a) forward: 5 […]3′ (SEQ ID NO:3); b) reverse: 5′TCCTGTTCACATTGACGCC3′ (SEQ ID NO:4). The amplicon for β-catenin promoter site 4 encompasses TTCCTGGAA (SEQ ID NO:5) on chr3: 41264037-41264357 in the Encode database. This was amplified with the primer sequences: a) forward: 5′[…]3′ (SEQ ID NO:6); b) reverse: 5′[…]3′ (SEQ ID NO:7).

[5] = tested on: normal nonwounded murine skin; assay: Hair cycle in non-wounded murine skin after injection during telogen; assay type: in vivo; conditions: poly (I:C) 200 ng/mouse injected during telogen
healed murine wounds = assay: Histology and immunohistochemistry of healed mouse scars (epidermal thickness, cleaved caspase 3, Ki-67); assay type: in vivo
Experimental: Immunohistochemistry, Immunocytochemistry and Histology. Immunohistochemistry was performed on formalin-fixed paraffin-embedded mouse skin samples using the avidin-biotin complex method and AEC development (Vector Laboratories). Indicated antibodies were applied overnight. Sections were counterstained with hematoxylin. Images were captured at 40× magnification using a Nikon Optiphot microscope and Nikon Elements F software. Histology was assessed by H&E after IL-6 addition. The epidermal thickness from the basal layer keratinocytes to beginning of stratum corneum in three locations per healed mouse wound in multiple histology sections was measured by Image J software.

[6] = IL-6 50 ng/mL + cucurbitacin I, NHEK, 24 hours
[7] = cucurbitacin I 2 mg/kg vs PBS, western blot
[8] = 72 hours after 24 hours of poly (I:C) 20 μg/mL, NHEK
[9] = poly (I:C) 20 μg/mL treatment, NHEK
[10] = poly (I:C) 20 μg/mL, NHEK, 24 hours

For CC(C)(O)/C=C/C(=O)[C@](C)(O)[C@H]1[C@H](O)C[C@@]2(C)[C@@H]3CC=C4[C@@H](C=C(O)C(=O)C4(C)C)[C@]3(C)C(=O)C[C@]12C [cucurbitacin I], the “decrease in the number of regenerated follicles” value (murine skin wounds; wt C57BL/6J mice, cucurbitacin I 2 mg/kg injected at WD7, CSLM ~WD20-24) was “greater than 3 fold”, the “effect on IL-6-induced TAp63 mRNA increase” value ([1]; IL-6 50 ng/mL + cucurbitacin I, NHEK) was “reversed” and the “effect on IL-6-induced KRT1 decrease” value [1, 6] was “reversed”. The “effect on induced CBX4 increase” value [1, 6] was “reversed”, the ANp63 protein (P-STAT3, TAp63, ΔNp63; [7]) was “corresponding increase” and the TAp63 protein (P-STAT3, TAp63, ΔNp63; [7]) was “decrease”. The STAT3 phosphorylation (P-STAT3, TAp63, ΔNp63; cucurbitacin I 2 mg/kg, western blot normalized to STAT3) was “strongly suppressed”.

With “Polyinosinic:polycytidylic acid [poly (I:C)]” the “stimulatory effect on WIHN in TLR3 null mice” value (murine skin wounds; TLR3 KO mice, poly (I:C) 200 ng vs PBS, CSLM) was “abrogated”, the “number of regenerated follicles (WIHN)” value (murine skin wounds; wt mice, single poly (I:C) 200 ng injected into wound at WD3 vs PBS, CSLM ~WD20-24) was “greater number of regenerated follicles” and the “amount of nuclear β-catenin” value (NHEK [2]) was “doubled”. The keratinocyte length-width ratio (NHEK [2]) was “near doubling”, the keratinocyte morphology (NHEK [2]) was “long, spindle-like morphology” and the “KRT15 mRNA expression” value [1, 8] was “significantly increased”. The “vimentin (VIM) mRNA expression” value ([1]; following poly (I:C) 20 μg/mL for 24 hours, indicated time points, NHEK) was “continued to increase in a time-dependent fashion”, the EDAR expression [1, 9] was “increased” and the GLI1 expression [1, 9] was “increased”. The LEF1 expression [1, 9] was “up-regulated”, the SHH expression [1, 9] was “increased” and the “induction of IL-6 mRNA” value ([1]; poly (I:C) 20 μg/mL, NHEK, 6 hours) was “greater than 30 fold”. For the same molecule, the CBX4 expression [1, 10] was “increase”, the KRT1 expression [1, 10] was “nearly complete loss” and the “filaggrin (FLG) expression” value [1, 10] was “nearly complete loss”. The E-cadherin epithelial marker ([1]; same conditions as vimentin, poly (I:C) treated NHEK) was “not reduced”, the “percentage of KRT15 expressing cells by FACS” value (NHEK [3]; [8]) was “nearly doubled” and the “vimentin protein expression by flow cytometry” value (NHEK [3]; poly (I:C) treated NHEK vs control keratinocytes and fibroblasts) was “intermediate between that of control keratinocytes and fibroblasts”. For the same molecule, the “STAT3 occupation of GLI2 promoter” value [4] was “significant increase”, the “STAT3 occupation of β-catenin promoter” value [4] was “significant increase” and the “effect on hair cycle (anagen activation) in nonwounded skin” value [5] was “does not affect the hair cycle; also recorded: no activation of anagen”.

B1: IL-6: recombinant mouse IL-6 protein in mice; recombinant human IL-6 in NHEK (protein, UniProt P08505 25-211, looked up)
Interleukin-6: FPTSQVRRGDFTEDTTPNRPVYTTSQVGGLITHVLWEIVEMRKELCNGNSDCMNNDDALAENNLKLPEIQRNDGCYQTGYNQEICLLKISSGLLEYHSYLEYMKNNLKDNKKDKARVLQRDTETLIHIFNQEVKDLHKIVLPTPISNALLTDKLESQKEWLRTKTIQFILKSLEEFLKVTLRSTRQT
With B1 the “increase in the number of regenerated follicles vs vehicle” value (murine skin wounds; wt C57BL/6J mice, single rmIL-6 25 ng injected at WD7, CSLM ~WD20-24) was roughly 3 fold, the “TAp63 mRNA” value ([1]; IL-6 50 ng/mL, NHEK) was “modest increase” and the CBX4 expression ([1]; IL-6 50 ng/mL, NHEK, 24 hours) was “increase”. For the same molecule, the “Keratin 1 (KRT1) differentiation marker expression” value ([1]; IL-6 50 ng/mL, NHEK, 24 hours) was “profound decrease”, the “increase in the amount of TAp63 protein” value (P-STAT3, TAp63, ΔNp63; IL-6 25 ng vs PBS, western blot normalized to β-actin) was 2.5 fold and the “apoptosis or proliferation (cleaved caspase 3, Ki-67)” value (healed murine wounds; healed murine wounds after rmIL-6 treatment) was “no alterations”. The “reduction in epidermal thickness vs controls” value (healed murine wounds; healed scars, IL-6 25 ng at WD7 vs PBS) was 2 fold.
